According to patent publication US20160257928A1, “Method for producing pluripotent stem cell having improved chimera forming ability from primed pluripotent stem cell, and composition and combination therefor” (The University of Tokyo, priority 2015, published 2016):

Legend:
EB3DR-EpiSC [1] = test: Chimera forming ability after injection into mouse blastocyst; assay type: in vivo; details: EpiSC treated with LIF and the inhibitor, about 10 cells injected per embryo
Description: Furthermore, the chimera forming ability of the EB3DR-EpiSC treated with LIF and IWP-2 was checked. Specifically, the embryo of a BDF1 (C57BL6/N; DBA1 F1) mouse was cultured in Medium 2 (manufactured by Millipore Corporation) to the eight-cell stage or morula stage. The resultant embryo was transferred to KSOM medium (manufactured by Millipore Corporation) and cultured for 24 hours to be developed to the blastocyst stage. For the injection into an embryo, the cell was dissociated into a single cell by a trypsin treatment, and the resultant was suspended in a medium. A zona pellucida was perforated under a microscope by using a piezoelectric micromanipulator, and a chimeric embryo was produced by injecting approximately 10 cells into a space below the zona pellucida in each embryo. After the injection, the embryo was cultured in KSOM medium until a blastomere was obtained, and then, the resultant was transplanted into the uterus of a pseudopregnant ICR recipient female mouse. The chimera formation was checked on the basis of the color of a fur. A cell derived from BDF1×C57BL/6 grows a black fur, and a cell derived from 129/Ola grows a brown (agouti-colored) fur. […]

Wnt/β catenin signal = test: Western blotting of β catenin in cytoplasmic and nuclear fractions; assay type: cell-based, mouse; details: EB3DR-EpiSC; for inhibition of Wnt/β catenin signal: Western blotting (FIG. 4 (A))
Description: First, in order to confirm the effect of IWP-2 on a Wnt/β catenin signal inhibition, the amount of protein in β catenin was checked by Western blotting. The EB3DR-EpiSC was cultured under the aforementioned culturing conditions, IWP-2 (at a final concentration of 5 nM) was added thereto, and the resultant was cultured for another 2 days. As a control, the same amount of DMSO was added instead of IWP-2. Next, Nuclear/Cytosol Fractionation Kit (Bio Vision, manufactured by Mountain View, Calif.) was used in accordance with the manufacturer's manual to separate a cytoplasmic fraction and a nuclear fraction. Each of these fractions thus obtained was dissolved in Laemmli Sample Buffer (Bio-Rad, manufactured by Hercules, Calif.) to perform SDS-PAGE. A protein separated by the SDS-PAGE was blotted on a PVDF transfer membrane (manufactured by Millipore Corporation) to perform a primary antibody reaction.
As a primary antibody, an anti-β catenin antibody (#9562, 1:1000), an anti-(β-actin antibody (#3770, 1:1000), or an anti-histone H3 antibody (#4499, 1:2000) purchased from Cell Signaling Technology Inc. was used. As a secondary antibody, for the anti-β catenin antibody or the anti-histone H3 antibody, an anti-rabbit IgG Horseradish peroxidase-conjugated antibody (NA934V, 1:100, manufactured by GE Healthcare UK, Little Chalfont, UK) was used for the reaction, and for the anti-β-actin antibody, an anti-mouse IgG Horseradish peroxidase-conjugated antibody (NA931V, 1:1000, manufactured by GE Healthcare UK, Little Chalfont, UK) was used for the reaction, and then a band bonded to the secondary antibody was detected by SuperSignal West Pico Chemiluminescent Substrate (manufactured by Thermo Fisher Scientific Inc., Rockford, Ill.). As a result, it was confirmed that the amount of β catenin was reduced in the nuclear fraction by IWP-2 and that a Wnt/β catenin signal was thus inhibited (see FIG. 4, (A)).

EB3DR-EpiSC [2] = test: Naive pluripotent stem cell-like colony formation of EpiSC; assay type: cell-based, mouse
Description: The EB3DR-EpiSC was cultured in N2B27 medium (Ying et al., Nature (2008), 435, 519-523) supplemented with 1,000 U/mL of mouse LIF and 1 μM of PD0325901 (manufactured by Axon, Groeningen, The Netherlands). To the resultant, 5 nM of IWP-2 (manufactured by Wako Pure Chemical Industries, Ltd., Osaka, Japan) was added, or CHIR known as an inhibitor of GSK3β or the same amount of DMSO was added instead of IWP-2, so as to check the influence on the EB3DR-EpiSC.
(§1) The naive-like colony formation and the chimera formation were checked in the same manner as described above except that XAV939 (manufactured by Sigma-Aldrich, S. Louis, Mo., USA) was used as the Wnt/β catenin signal inhibitor instead of IWP-2.

EB3DR-EpiSC [3] = test: CD31 (PECAM-1) expression by FACS; assay type: cell-based, mouse; details: for expression of CD31 (CD31 positive cell frequency): in the presence of LIF
Description: Next, the expression of CD31 (PECAM-1) in these cells was analyzed. The expression level of CD31 was checked by the FACS by using an APC labeled rat anti-mouse CD31 antibody (manufactured by eBioscience, 17-0311). […] When a colony of the CD31 expressing cell was cloned and subcultured, a mouse ES cell-like morphology was obtained (see FIG. 4, (G)), and such a cell could be subcultured continuously for a long period of time similarly to a mouse ES cell. Since the cell was derived from the EB3DR-EpiSC, DsRed was expressed therein (see FIG. 4, (H)).
as §1

STAT3 signal = test: Western blotting of phosphorylated STAT3; assay type: cell-based, mouse; details: EB3DR-EpiSC, 2nd day after stimulation
Description: Besides, the EB3DR-EpiSC was stimulated with LIF, the resultant cell was collected on the 2nd day after stimulation, and the activation of a STAT3 signal was checked by the Western blotting. The activation of a STAT3 signal was checked on the basis of the presence of phosphorylated STAT3. The phosphorylated STAT3 was detected by using, as a primary antibody, an anti-P-STAT3 antibody (#9145, 1:2000, manufactured by Cell Signaling Technology Inc.) […] specifically recognizing phosphorylated STAT3.

EB3DR-EpiSC-TRE-Cdh1 = test: CD31 expression by FACS in E-cadherin induced EpiSC; assay type: cell-based, mouse; details: 7 days, with forced expression of E-cadherin (Dox(+), 10 μg/mL doxycycline)
Description: The EB3DR-EpiSC-TRE-Cdh1 was cultured for 7 days in the presence of a basic fibroblast growth factor (bFGF) or LIF in a usual medium (Dox(−)) or a medium supplemented with 10 μg/mL of doxycycline (Dox(+)), and the resultant cell was dissociated with a trypsin/EDTA solution and stained with an APC labeled anti-mouse CD31 antibody to be analyzed by using the FACS.

Which “chimera formation (production of a chimeric animal)” value (EB3DR-EpiSC [1]) does the source give for `Cc1ccc2nc(NC(=O)CSc3nc4c(c(=O)n3-c3ccccc3)SCC4)sc2c1` [IWP-2, N-(6-methyl-2-benzothiazolyl)-2-[(3,4,6,7-tetrahydro-4-oxo-3-phenylthieno[3,2-d]pyrimidine-2-yl)thio]-acetamide] here?
Its value is “confirmed, based on the fur color, as a chimeric mouse”.

And the “inhibition of Wnt/β catenin signal” value (Wnt/β catenin signal)?
The value was “inhibited”.

And the “amount of β catenin in the nuclear fraction” value (Wnt/β catenin signal; final concentration 5 nM, 2 days, vs DMSO)?
The value was “reduced”.

What about the “appearance of a colony corresponding to a naive pluripotent stem cell-like morphology, time after culture” value (EB3DR-EpiSC [2]; N2B27 medium with 1,000 U/mL mouse LIF and 1 μM PD0325901, 5 nM IWP-2) of the same compound?
The value was ≤ 7 days.

What about the “appearance frequency of a colony characteristic to the naive pluripotent stem cell on the 14th day after culture” value (EB3DR-EpiSC [2]; N2B27 medium with LIF and PD0325901, 5 nM IWP-2, vs CHIR or DMSO) of the same compound?
The value was “significantly increased”.

And the “expression of CD31 (CD31 positive cell frequency)” value (EB3DR-EpiSC [3])?
The value was “expressed at a high frequency in a short period of time”.

And the “activation of a STAT3 signal (presence of phosphorylated STAT3)” value (STAT3 signal)?
The value was “also observed”.

How did the “chimera formation (production of a chimeric animal)” value (EB3DR-EpiSC [1]) turn out when `O=c1[nH]c(-c2ccc(C(F)(F)F)cc2)nc2c1CSCC2` [XAV939, 3,5,7,8-tetrahydro-2-[4-(trifluoromethyl)phenyl]-4H-thiopyrano[4,3-d]pyrimidine-4-one] was run?
Its value is “a chimeric animal was produced”.

What about the “inhibition of Wnt/β catenin signal” value (Wnt/β catenin signal) of the same compound?
Its value is “work as an inhibitor of a Wnt/β catenin signal”.

And the “naive-like colony formation on the 7th day after treatment” value (EB3DR-EpiSC [2]; LIF used in combination)?
Its value is “formed a naive-like colony”.

What about the “proportion of the CD31 (PECAM-1) positive cell on the 7th day after treatment” value (EB3DR-EpiSC [3]; LIF used in combination) of the same compound?
Its value is “remarkably increased”.

And the “expression of CD31 (CD31 positive cell frequency)” value (EB3DR-EpiSC [3])?
The value was “observed at a high frequency”.

And the “activation of a STAT3 signal (presence of phosphorylated STAT3)” value (STAT3 signal)?
Its value is “also observed”.

How did the “CD31 (Pecam1) positive cell proportion” value (EB3DR-EpiSC-TRE-Cdh1) turn out when “bFGF: basic fibroblast growth factor, culture medium supplement” was run?
The value was “the level was merely restrictive”.
